Data published in patent publication US8158088B2, “Extractant compositions for co-extracting cesium and strontium, a method of separating cesium and strontium from an aqueous feed, and calixarene compounds” (Battelle Energy Alliance, LLC, priority 2008, dated 2012).

Assays:
[1] = Strontium distribution ratio (DSr), equilibrium batch contact of mixed extractant solvent with nitric acid feed; type: physicochemical
[2] = Solvent stability: cesium distribution ratios as a function of contact time with 1.5 M HNO3; type: physicochemical
Method: The stability of the mixed extractant solvents prepared using dialkyloxycalix[4]arenebenzocrown-6 compounds (MC-8, MC-8B, MC-10, MC-10B, MC-12, or MC-12B) relative to BOBCalixC6 in the FPEX I process solvent was determined. Samples were prepared using each of the dialkyloxycalix[4]arenebenzocrown-6 compounds and contacted with 1.5 M HNO3. The samples included 0.007 M of the respective dialkyloxycalix[4]arenebenzo-crown-6 compound (MC-8, MC-8B, MC-10, MC-10B, MC-12, or MC-12B), 0.075 M DtBuCH18C6, 0.75 M Cs-7SB modifier, and 0.003 M TOA in ISOPAR® L. The stability of the dialkyloxycalix[4]arene-benzocrown-6 based solvents was evaluated by measuring the cesium and strontium distribution ratios as a function of contact time. These cesium and strontium distribution ratios for the mixed extractant solvents are presented in Table 9 and Table 10, respectively, along with the cesium and strontium distribution ratios for the FPEX I process solvent. The symbol “-” is used in Tables 9 and 10 to indicate no data was collected.
This degradation is likely due to chemical attack or nitration of the BOBCalixC6 in the FPEX I process solvent. […] However, it is difficult to compare the relative extents of degradation. In order to compare the different extractants, the distribution ratio data presented in Tables 9 and 10 were normalized to the values obtained at t=0 days contact. The normalized cesium and strontium distribution ratios for the FPEX I process solvent and the mixed extractant solvents as a function of contact time are presented in FIGS. 2 and 3, respectively.

CCCCCCCCOc1c2cccc1Cc1cccc3c1OCCOCCOc1ccccc1OCCOCCOc1c(cccc1Cc1cccc(c1OCCCCCCCC)C3)C2 [MC-8, 1,3-alternate-25,27-di(octyloxy)calix[4]arenebenzocrown-6]
DSr ([1]; 0.010 M MC-8, contact E1, 1.5 M HNO3, 0.075 M DtBuCH18C6, 0.75 M Cs-7SB, 0.003 M TOA in ISOPAR L): 8.9
DSr ([1]; 0.015 M MC-8, contact E1, 1.5 M HNO3): 7.2
DSr ([1]; 0.020 M MC-8, contact E1, 1.5 M HNO3): 9.4
DSr ([1]; 0.025 M MC-8, contact E1, 1.5 M HNO3): 9.1
DSr ([1]; 1.0 M HNO3, 20 °C, contact E1, 0.025 M MC-8, 0.075 M DtBuCH18C6, 0.75 M Cs-7SB, 0.003 M TOA in ISOPAR L): 7.4
DSr ([1]; 1.5 M HNO3, 20 °C, contact E1, 0.025 M MC-8): 12.4
DSr ([1]; 2.0 M HNO3, 20 °C, contact E1, 0.025 M MC-8): 16.2
DSr ([1]; 3.0 M HNO3, 20 °C, contact E1, 0.025 M MC-8): 3rd phase
DSr ([1]; 4.0 M HNO3, 20 °C, contact E1, 0.025 M MC-8): 3rd phase
DSr ([1]; 15 °C, contact E1, 1.0 M HNO3 feed, 0.025 M MC-8, 0.075 M DtBuCH18C6, 0.75 M Cs-7SB, 0.003 M TOA in ISOPAR L): 9.0
DSr ([1]; 20 °C, contact E1, 1.0 M HNO3 feed, 0.025 M MC-8): 6.0
DSr ([1]; 25 °C, contact E1, 1.0 M HNO3 feed, 0.025 M MC-8): 4.6
DSr ([1]; 30 °C, contact E1, 1.0 M HNO3 feed, 0.025 M MC-8): 3.4
DSr ([1]; 35 °C, contact E1, 1.0 M HNO3 feed, 0.025 M MC-8): 2.5
DSr ([1]; contact E1, batch contact flowsheet, simulated feed 1.0 M HNO3, 0.025 M MC-8): 7.1
DSr ([1]; contact E2, simulated feed 1.0 M HNO3, 0.025 M MC-8): 6.2
DSr ([1]; contact E3, simulated feed 1.0 M HNO3, 0.025 M MC-8): 6.2
DSr ([1]; contact St1 (strip), 0.025 M MC-8): 0.022
DSr ([1]; contact St2 (strip), 0.025 M MC-8): 0.006
Strontium distribution ratio, contact E1 ([1]; first forward extraction, 1.5 M HNO3 feed simulant, 25 °C, 0.007 M calixarene, 0.075 M DtBuCH18C6, 0.75 M Cs-7SB, 0.003 M TOA in ISOPAR L): 10.5
Strontium distribution ratio, contact St1 ([1]; first strip with 0.01 M HNO3, 35 °C, 0.007 M calixarene solvent): 0.06
Strontium distribution ratio, contact E2 ([1]; second forward extraction, 1.5 M HNO3 feed, 25 °C, 0.007 M calixarene solvent): 8.6
Strontium distribution ratio, contact St2 ([1]; second strip with 0.01 M HNO3, 35 °C, 0.007 M calixarene solvent): 0.01
Strontium distribution ratio, contact E3 ([1]; third forward extraction, 1.5 M HNO3 feed, 25 °C, 0.007 M calixarene solvent): 8.5
Cesium distribution ratio as a function of contact time ([2]; contact time 0 days with 1.5 M HNO3, 0.007 M calixarene, 0.075 M DtBuCH18C6, 0.75 M Cs-7SB, 0.003 M TOA in ISOPAR L): 4.2
Cesium distribution ratio as a function of contact time ([2]; contact time 34 days with 1.5 M HNO3): 3.2
Cesium distribution ratio as a function of contact time ([2]; contact time 70 days with 1.5 M HNO3): 3.6
Cesium distribution ratio as a function of contact time ([2]; contact time 278 days with 1.5 M HNO3): 2.8
